For assay [1], the target named is T1, human recombinant DPP-IV (Homo sapiens, UniProt P27487).
T1 construct: purchased R&D Systems, USA (or produced in-house)
The assay can be described thus: Inhibition of human recombinant DPP-IV (Gly-Pro-AMC hydrolysis, fluorometric). In kind it is biochemical. Particulars: human recombinant DPP-IV, 50 μM Gly-Pro-AMC, 30 min at 30° C. A digest of the protocol:
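Enzyme (10 ng) was preincubated 15 min at 30° C. with compound (10 and 100 nM screen; 8 concentrations 0.1-1000 nM) in Tris-HCl pH 7.4, NaCl, KCl, BSA. 50 μM Gly-Pro-AMC was added for 30 min at 30° C. and AMC fluorescence was read (ex 360/em 460 nm). Results are given as % inhibition versus vehicle or as IC50.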

For assay [2], the target named is T2, plasma DPP-IV (Rattus norvegicus, UniProt P14740).
T2 construct: from tissue; host or cells: EDTA-plasma of male Wistar rats dosed orally
T2 sequence (P14740 37-767 limits assumed): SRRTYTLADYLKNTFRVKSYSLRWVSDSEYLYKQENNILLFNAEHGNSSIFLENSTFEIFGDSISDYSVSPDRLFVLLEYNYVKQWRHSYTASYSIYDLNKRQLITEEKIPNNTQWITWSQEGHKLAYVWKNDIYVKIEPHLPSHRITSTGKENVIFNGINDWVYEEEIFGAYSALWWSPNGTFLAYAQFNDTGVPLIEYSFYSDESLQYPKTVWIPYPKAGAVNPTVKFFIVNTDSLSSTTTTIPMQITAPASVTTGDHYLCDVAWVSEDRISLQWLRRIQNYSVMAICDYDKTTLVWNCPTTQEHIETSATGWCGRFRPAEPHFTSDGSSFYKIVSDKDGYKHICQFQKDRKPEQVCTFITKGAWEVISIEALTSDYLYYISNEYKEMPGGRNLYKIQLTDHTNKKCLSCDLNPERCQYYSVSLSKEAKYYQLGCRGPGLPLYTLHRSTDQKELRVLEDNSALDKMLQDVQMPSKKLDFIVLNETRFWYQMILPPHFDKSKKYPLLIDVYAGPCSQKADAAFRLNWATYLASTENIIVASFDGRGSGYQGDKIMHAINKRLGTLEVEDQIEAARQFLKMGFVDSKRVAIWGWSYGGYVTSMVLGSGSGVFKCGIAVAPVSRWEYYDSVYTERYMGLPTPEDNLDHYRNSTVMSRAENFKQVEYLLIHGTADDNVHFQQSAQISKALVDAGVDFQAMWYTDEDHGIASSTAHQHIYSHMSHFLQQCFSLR
In words: Measurement of plasma DPP-IV activity in male Wistar rats after single oral dose. Particulars: p.o.; for inhibition at 3 mg/kg / inhibition at 10 mg/kg: rat, po; for inhibition at 3 mg/kg / Plasma DPP-IV Inhibition (%) 4 h / Plasma DPP-IV Inhibition (%) 6 h / Plasma DPP-IV Inhibition (%) 8 h: 3 mg/kg. In kind it is in vivo. On the procedure: Overnight-fasted male animals were administered either vehicle or single oral doses of compounds. Blood samples were withdrawn from retro-bulbar venous plexus under anesthesia at several time points up to 24 h post-dose. EDTA-plasma was separated and DPP-IV activity was measured using a fluorometric assay. Assays were carried out in 96-well flat-bottom black microwell plates. A typical reaction contained 25 μl plasma, 50 μl of 50 μM substrate (Gly-Pro-AMC) and 25 μl assay buffer (25 mM Tris-HCl, pH 7.4, 140 mM NaCl, 10 mM KCl and 1% BSA) in a total reaction volume of 100 μl. Plasma samples were incubated with the substrate for 30 min at 30° C., following which the fluorescence was measured in a microplate fluorescence redaer (POLARstar Galaxy), with excitation and emission wavelengths set at 360 nm and 460 nm, respectively. Percent inhibition in plasma DPP-IV activity due to compounds was calculated by comparing with plasma from vehicle-treated animals.

For assay [3], the system named is C57BL/6J mice. In words: Oral glucose tolerance test in male C57BL/6J mice. Format: in vivo. Particulars: 3 mg/kg, p.o., oral glucose load 5 g/kg 1 h after compound, glucose AUC 0-120 min vs vehicle. On the procedure:
B. Oral Glucose Tolerance Test in Male C57BU6J Mice
Overnight-fasted male […] mice were challenged 1 h, 4 h and 8 h after either vehicle or compound administration with an oral glucose load of 5 g/kg in three different groups of animals. Blood samples for glucose measurement were obtained by tail bleed at predose, before glucose load and at serial time points after the glucose load, to evaluate the efficacy and duration of effect on glucose tolerance test. […] Improvement in glucose tolerance in compound-treated animals was estimated by comparing with vehicle-treated animals.
Table 3 provides data for the antihyperglycemic activity of selected compounds in C57BL/6J mice, as determined by oral glucose tolerance test.

[4] abbreviates: 4 h post-dose, read-out: Plasma DPP-IV Inhibition (%) 4 h.
Setting [5] is: 6 h post-dose, read-out: Plasma DPP-IV Inhibition (%) 6 h.
The mark [6] stands for this setting: 8 h post-dose, read-out: Plasma DPP-IV Inhibition (%) 8 h.

Consider four compounds from patent US8338450B2, “Compounds as dipeptidyl peptidase IV (DPP IV) inhibitors” (Lupin Limited, priority 2007, dated 2012).

One may read the IC50 as the concentration at which inhibition is half-maximal. For orientation: inhibition means the change of the read-out against control, counted positive when it falls.

Structures can show the parent of a compound that is named as a salt. Where two headings read alike, the source gives them in different places.

T1 sequence (P27487 whole entry): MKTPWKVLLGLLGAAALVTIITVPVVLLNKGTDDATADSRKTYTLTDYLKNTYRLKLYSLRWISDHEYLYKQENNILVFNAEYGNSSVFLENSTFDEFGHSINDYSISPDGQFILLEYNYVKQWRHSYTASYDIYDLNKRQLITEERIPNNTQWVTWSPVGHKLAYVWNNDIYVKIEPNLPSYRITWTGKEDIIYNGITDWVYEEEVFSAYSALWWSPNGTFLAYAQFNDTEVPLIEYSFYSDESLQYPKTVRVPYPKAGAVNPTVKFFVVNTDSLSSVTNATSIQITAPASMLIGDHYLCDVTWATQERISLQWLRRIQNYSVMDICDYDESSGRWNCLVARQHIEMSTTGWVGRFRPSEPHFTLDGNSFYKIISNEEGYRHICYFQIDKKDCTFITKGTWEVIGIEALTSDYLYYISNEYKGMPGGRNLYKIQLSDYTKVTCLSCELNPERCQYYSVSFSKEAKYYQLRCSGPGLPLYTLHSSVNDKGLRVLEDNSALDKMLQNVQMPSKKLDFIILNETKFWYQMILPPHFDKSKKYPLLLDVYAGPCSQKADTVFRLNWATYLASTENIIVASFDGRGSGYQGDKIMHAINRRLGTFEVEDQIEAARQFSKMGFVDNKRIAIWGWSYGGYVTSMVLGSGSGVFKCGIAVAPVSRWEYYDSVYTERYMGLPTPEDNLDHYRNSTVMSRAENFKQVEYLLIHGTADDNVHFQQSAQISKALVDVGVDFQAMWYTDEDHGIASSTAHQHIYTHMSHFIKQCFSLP

Turning to `C#C[C@H]1CC[C@@H](C#N)N1C(=O)[C@@H](N)C1CC2CCC(C1)N2C(=O)c1ccnc(F)c1` (stereo partly drawn) [Compound 66, (2S,5R)-1-{(2S)-2-Amino-2-[8-(2-fluoropyridin-4-carbonyl)-8-aza-bicyclo[3.2.1]-oct-3-yl]-exo-ethanoyl}-5-ethynyl-pyrrolidin-2-carbonitrile trifluoro acetic acid salt], the 50% inhibitory concentration (IC50) in assay [1] is 8.24 nM. Besides, the figures for the inhibition at 3 mg/kg in assay [2] (setting [4]), in assay [2] (setting [5]) and in assay [2] (setting [6]) were 56%, 38% and 38%, respectively. Further, the “Improvement in Glucose Tolerance (%) 1 h” value in assay [3] was found to be 48%.

On to `N#C[C@@H]1C[C@@H]2C[C@@H]2N1C(=O)[C@@H](N)C1CC2CCC(C1)N2C(=O)c1cnccn1.O=C(O)C(F)(F)F` (stereo partly drawn) [Compound 35, (1S,3S,5S)-2-{(2S)-2-Amino-2-[8-(pyrazine-2-carbonyl)-8-aza-bicyclo[3.2.1]oct-3-yl]-exo-ethanoyl}-2-azabicyclo[3.1.0]hexane-3-carbonitrile trifluoroacetic acid salt], for which the IC50 in assay [1] came to 4.2 nM. The “Plasma DPP-IV Inhibition (%) 4 h” value in assay [2] (4 h post-dose) is listed as 54%. Besides, the “Plasma DPP-IV Inhibition (%) 6 h” value in assay [2] (6 h post-dose) was 42%. The “Plasma DPP-IV Inhibition (%) 8 h” value in assay [2] (8 h post-dose) is 33%. Further, in assay [3], the “Improvement in Glucose Tolerance (%) 1 h” value was found to be 46%.

Turning to `N#C[C@@H]1C[C@@H]2C[C@@H]2N1C(=O)[C@@H](N)C1CC2CCC(C1)N2C(=O)c1ccnc(F)c1` (stereo partly drawn) [Compound 28, (1S,3S,5S)-2-{(2S)-2-amino-2-[8-(2-fluoropyridine-4-carbonyl)-8-aza-bicyclo[3.2.1]-oct-3-yl]-exo-ethanoyl}-2-azabicyclo[3.1.0]-hexane-3-carbonitrile trifluoro acetic acid salt], the half-inhibitory concentration (IC50) in assay [1] amounted to 4.7 nM. Further, the inhibition at 3 mg/kg was determined as 51% in assay [2] (setting [4]), 35% in assay [2] (setting [5]) and 28% in assay [2] (setting [6]). Also, the inhibition at 10 mg/kg came out at 77% in assay [2] (setting [4]), 65% in assay [2] (setting [5]) and 53% in assay [2] (setting [6]). Besides, in assay [3], the “Improvement in Glucose Tolerance (%) 1 h” value was 54%.

In the case of `C#C[C@H]1CC[C@@H](C#N)N1C(=O)[C@@H](N)C1CC2CCC(C1)N2C(=O)c1ccc2c(c1)OCO2.O=C(O)C(F)(F)F` (stereo partly drawn) [Compound 67, (2S,5R)-1-{(2S)-2-Amino-2-[8-(benzo[1,3]dioxole-5-carbonyl)-8-aza-bicyclo[3.2.1]oct-3-yl]-exo-ethanoyl}-5-ethynyl-pyrrolidin-2-carbonitrile trifluoroacetic acid salt], the half-maximal inhibitory concentration (IC50) in assay [1] came to 7.68 nM. Moreover, the “Plasma DPP-IV Inhibition (%) 4 h” value in assay [2] (4 h post-dose) worked out at 64%. In assay [2] (6 h post-dose), the “Plasma DPP-IV Inhibition (%) 6 h” value was found to be 36%. Also, the “Plasma DPP-IV Inhibition (%) 8 h” value in assay [2] (8 h post-dose) is on record as 23%. Besides, the “Improvement in Glucose Tolerance (%) 1 h” value in assay [3] is on record as 50%.
